Measured values: patent US9845310B2 (priority 2015, dated 2017)
Like-named read-outs stand apart in the source and are kept apart here.

Biological target: APJ (Homo sapiens (Human), UniProt P35414)
Assay: [35S]GTPγS binding assay on membranes from CHO cells stably expressing human APJ receptor
Assay type: biochemical
[1] = read-out: Activity hAPJ SPA EC50 IP

Chain of APJ (P35414 whole entry): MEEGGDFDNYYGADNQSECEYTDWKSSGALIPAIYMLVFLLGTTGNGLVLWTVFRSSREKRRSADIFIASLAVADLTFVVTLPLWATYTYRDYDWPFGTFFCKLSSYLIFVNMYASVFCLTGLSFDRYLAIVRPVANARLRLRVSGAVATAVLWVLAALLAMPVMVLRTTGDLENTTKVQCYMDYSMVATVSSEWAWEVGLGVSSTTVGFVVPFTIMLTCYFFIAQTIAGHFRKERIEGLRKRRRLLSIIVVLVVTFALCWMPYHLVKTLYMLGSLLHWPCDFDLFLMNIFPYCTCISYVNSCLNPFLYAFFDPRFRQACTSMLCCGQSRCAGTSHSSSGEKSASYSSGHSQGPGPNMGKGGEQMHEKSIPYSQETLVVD

Compound	EC50 [1] [µM]	EC50 (Activity hAPJ SPA EC50 IP (μM)) [µM]
COc1cccc(OC)c1-n1c(NS(=O)(=O)[C@@H]2CCCO[C@@H]2c2ncc(C)cn2)nnc1-c1cncc(C)c1 (single isomer, unassigned) [Example 646.0]	0.053	–
COc1cccc(-c2nnc(NS(=O)(=O)[C@@H]3CCCO[C@@H]3c3ncc(C)cn3)n2-c2c(OC)cccc2OC)n1 (single isomer, unassigned) [Example 654.0]	0.15	–
COc1cccc(-c2nnc(NS(=O)(=O)[C@@H]3CCCO[C@@H]3c3ncc(C)cn3)n2-c2c(OC)cccc2OC)n1 (single isomer, unassigned) [Example 655.0]	0.13	–
COc1cccc(-c2nnc(NS(=O)(=O)[C@@H]3CCCO[C@@H]3c3ncc(C)cn3)n2-c2c(OC)cccc2OC)n1 (single isomer, unassigned) [Example 656.0]	0.013	–
COc1cccc(-c2nnc(NS(=O)(=O)[C@@H]3CCCO[C@@H]3c3ncc(C)cn3)n2-c2c(OC)cccc2OC)n1 (single isomer, unassigned) [Example 657.0]	0.014	–
COc1ccnc(OC)c1-n1c(NS(=O)(=O)[C@@H](C)[C@H](OC)c2ccc(Cl)cn2)nnc1-c1cccnc1 (single isomer, unassigned) [Example 715.0, (1R,2S,P)-1-(5-chloro-2-pyridinyl)-N-(4-(2,4-dimethoxy-3-pyridinyl)-5-(3-pyridinyl)-4H-1,2,4-triazol-3-yl)-1-methoxy-2-propanesulfonamide or (1R,2S,M)-1-(5-chloro-2-pyridinyl)-N-(4-(2,4-dimethoxy-3-pyridinyl)-5-(3-pyridinyl)-4H-1,2,4-triazol-3-yl)-1-methoxy-2-propanesulfonamide]	–	0.00031
COc1cccc(-c2nnc(NS(=O)(=O)[C@@H](C)[C@H](OC)c3ncc(C)cn3)n2-c2c(OC)ccnc2OC)n1 (single isomer, unassigned) [Example 771.0]	–	0.002
COc1cccc(OC)c1-n1c(NS(=O)(=O)[C@@H](C)[C@H](OC)c2ncnn2C)nnc1-c1cncc(C)c1 (single isomer, unassigned) [Example 781.0, (1R,2S)-N-(4-(2,6-dimethoxyphenyl)-5-(5-methyl-3-pyridinyl)-4H-1,2,4-triazol-3-yl)-1-methoxy-1-(1-methyl-1H-1,2,4-triazol-5-yl)-2-propanesulfonamide or (1S,2R)-N-(4-(2,6-dimethoxyphenyl)-5-(5-methyl-3-pyridinyl)-4H-1,2,4-triazol-3-yl)-1-methoxy-1-(1-methyl-1H-1,2,4-triazol-5-yl)-2-propanesulfonamide]	–	0.59
COc1cccc(OC)c1-n1c(NS(=O)(=O)[C@@H](C)[C@H](OC)c2ncnn2C)nnc1-c1cncc(C)c1 (single isomer, unassigned) [Example 782.0, (1R,2S)-N-(4-(2,6-dimethoxyphenyl)-5-(5-methyl-3-pyridinyl)-4H-1,2,4-triazol-3-yl)-1-methoxy-1-(1-methyl-1H-1,2,4-triazol-5-yl)-2-propanesulfonamide or (1S,2R)-N-(4-(2,6-dimethoxyphenyl)-5-(5-methyl-3-pyridinyl)-4H-1,2,4-triazol-3-yl)-1-methoxy-1-(1-methyl-1H-1,2,4-triazol-5-yl)-2-propanesulfonamide]	–	0.028
COc1cccc(OC)c1-n1c(NS(=O)(=O)[C@H](C)[C@H](OC(C)C)c2cnc(C)cn2)nnc1-c1cccc(C)n1 (single isomer, unassigned) [Example 824.0, (1S,2S)-N-(4-(2,6-dimethoxyphenyl)-5-(6-methylpyridin-2-yl)-4H-1,2,4-triazol-3-yl)-1-isopropoxy-1-(5-methylpyrazin-2-yl)propane-2-sulfonamide or (1R,2R)-N-(4-(2,6-dimethoxyphenyl)-5-(6-methylpyridin-2-yl)-4H-1,2,4-triazol-3-yl)-1-isopropoxy-1-(5-methylpyrazin-2-yl)propane-2-sulfonamide]	–	0.00047
COc1cccc(-c2nnc(NS(=O)(=O)[C@H](C)[C@H](OC(C)C)c3cnc(C)cn3)n2-c2c(OC)cccc2OC)n1 (single isomer, unassigned) [Example 825.0, (1S,2S)-N-(4-(2,6-dimethoxyphenyl)-5-(6-methoxypyridin-2-yl)-4H-1,2,4-triazol-3-yl)-1-isopropoxy-1-(5-methylpyrazin-2-yl)propane-2-sulfonamide or (1R,2R)-N-(4-(2,6-dimethoxyphenyl)-5-(6-methoxypyridin-2-yl)-4H-1,2,4-triazol-3-yl)-1-isopropoxy-1-(5-methylpyrazin-2-yl)propane-2-sulfonamide]	0.00015	–
COc1cccc(OC)c1-n1c(NS(=O)(=O)[C@H](C)[C@@H](OC(C)C)c2ncc(C)cn2)nnc1-c1cccnc1 (stereo in doubt) [Example 624.0, (1S,2R)-N-(4-(2,6-dimethoxyphenyl)-5-(3-pyridinyl)-4H-1,2,4-triazol-3-yl)-1-(1-methylethoxy)-1-(5-methyl-2-pyrimidinyl)-2-propanesulfonamide, (1R,2S)-N-(4-(2,6-dimethoxyphenyl)-5-(3-pyridinyl)-4H-1,2,4-triazol-3-yl)-1-(1-methylethoxy)-1-(5-methyl-2-pyrimidinyl)-2-propanesulfonamide]	0.16	–
COc1cccc(OC)c1-n1c(NS(=O)(=O)[C@@H](C)[C@@H](OC(C)C)c2ncc(C)cn2)nnc1-c1cccnc1 (stereo in doubt) [Example 625.0]	0.11	–
COc1cccc(OC)c1-n1c(NS(=O)(=O)[C@H](C)[C@@H](OC(C)C)c2ncc(C)cn2)nnc1-c1cccnc1 (stereo in doubt) [Example 626.0, (1S,2R)-N-(4-(2,6-dimethoxyphenyl)-5-(3-pyridinyl)-4H-1,2,4-triazol-3-yl)-1-(1-methylethoxy)-1-(5-methyl-2-pyrimidinyl)-2-propanesulfonamide, (1R,2S)-N-(4-(2,6-dimethoxyphenyl)-5-(3-pyridinyl)-4H-1,2,4-triazol-3-yl)-1-(1-methylethoxy)-1-(5-methyl-2-pyrimidinyl)-2-propanesulfonamide]	0.0018	–
COc1cccc(-c2nnc(NS(=O)(=O)[C@@H](C)[C@H](O)c3ccc(F)cc3S(C)(=O)=O)n2-c2c(OC)cccc2OC)n1 [Example 288.0]	–	0.0011
COc1ccc(Cl)c(OC)c1-n1c(-c2cncc(C)c2)nnc1S(=O)(=O)NCCc1ccc(Cl)cc1 [Example 373.0, 4-(3-chloro-2,6-dimethoxyphenyl)-N-(2-(4-chlorophenyl)ethyl)-5-(5-methyl-3-pyridinyl)-4H-1,2,4-triazole-3-sulfonamide]	–	0.31
COc1cccc(OC)c1-n1c(NS(=O)(=O)[C@@H](C)[C@H](OC)c2ncc(-c3ccccc3)cn2)nnc1-c1cncc(C)c1 [Example 428.0, (1R,2S)-N-(4-(2,6-dimethoxyphenyl)-5-(5-methylpyridin-3-yl)-4H-1,2,4-triazol-3-yl)-1-methoxy-1-(5-phenylpyrimidin-2-yl)propane-2-sulfonamide]	–	0.0025
CC#Cc1cnc([C@@H](OC)[C@H](C)S(=O)(=O)Nc2nnc(-c3cncc(C)c3)n2-c2c(OC)cccc2OC)nc1 [Example 535.0, (1R,2S)-N-(4-(2,6-dimethoxyphenyl)-5-(5-methylpyridin-3-yl)-4H-1,2,4-triazol-3-yl)-1-methoxy-1-(5-(prop-1-yn-1-yl)pyrimidin-2-yl)propane-2-sulfonamide]	–	0.0013
COc1cccc(-c2nnc(NS(=O)(=O)CCc3ccc(C#N)cn3)n2-c2c(OC)cccc2OC)n1 [Example 550.0, 2-(5-cyanopyridin-2-yl)-N-(4-(2,6-dimethoxyphenyl)-5-(6-methoxypyridin-2-yl)-4H-1,2,4-triazol-3-yl)ethanesulfonamide]	–	0.0008
CO[C@H](c1ncc(C)cn1)[C@H](C)S(=O)(=O)Nc1nnc(-c2cncc(C)c2)n1-c1c(C)cccc1C [Example 673.0, (1R,2S)-N-(4-(2,6-dimethylphenyl)-5-(5-methyl-3-pyridinyl)-4H-1,2,4-triazol-3-yl)-1-methoxy-1-(5-methyl-2-pyrimidinyl)-2-propanesulfonamide 2,2,2-trifluoroacetate]	–	0.022
COCCO[C@H](c1ncc(C)cn1)[C@H](C)S(=O)(=O)Nc1nnc(-c2cccc(OC)n2)n1-c1c(OC)cccc1OC [Example 695.0, (1R,2S)-N-(4-(2,6-dimethoxyphenyl)-5-(6-methoxypyridin-2-yl)-4H-1,2,4-triazol-3-yl)-1-(2-methoxyethoxy)-1-(5-methylpyrimidin-2-yl)propane-2-sulfonamide]	–	0.00012
COc1cccc(OC)c1-n1c(NS(=O)(=O)[C@@H](C)[C@H](C)c2ncc(C#N)cn2)nnc1-c1cncc(C)c1 [Example 697.0, (2S,3R)-3-(5-cyano-2-pyrimidinyl)-N-(4-(2,6-dimethoxyphenyl)-5-(5-methyl-3-pyridinyl)-4H-1,2,4-triazol-3-yl)-2-butanesulfonamide]	–	0.0007
COc1cccc(OC)c1-n1c(NS(=O)(=O)[C@@H](C)[C@H](C)c2ncc(C)cn2)nnc1-c1cncc(C2CC2)c1 [Example 734.0, (2S,3R)-N-(5-(5-cyclopropylpyridin-3-yl)-4-(2,6-dimethoxyphenyl)-4H-1,2,4-triazol-3-yl)-3-(5-methylpyrimidin-2-yl)butane-2-sulfonamide]	–	0.002
COc1cnc([C@@H](C)[C@H](C)S(=O)(=O)Nc2nnc(-c3cccc(OC)n3)n2-c2c(F)cccc2F)cn1 [Example 787.0, (2S,3R)-N-(4-(2,6-difluorophenyl)-5-(6-methoxy-2-pyridinyl)-4H-1,2,4-triazol-3-yl)-3-(5-methoxy-2-pyrazinyl)-2-butanesulfonamide]	–	0.00053
